Source: PubChem BioAssay (NCI)
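GI50: concentration for 50% inhibition of growth. TGI: concentration producing complete growth inhibition.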

Key:
Assay in all cases: NCI tumour cell line growth inhibition, 384-well format
[1] = test system: UO-31 renal
[2] = test system: HT29 colon
[3] = test system: SF-539 CNS
[4] = test system: HCC-2998 colon
[5] = test system: CCRF-CEM leukemia
[6] = test system: NCI-H460 NSCLC
[7] = test system: NCI-H226 lung
[8] = test system: K-562 leukemia
[9] = test system: OVCAR-4 ovarian
[10] = test system: BT-549 breast
[11] = test system: RXF 393 renal
[12] = test system: COLO 205 colon
[13] = test system: SW-620 colon
[14] = test system: MDA-MB-231 breast
[15] = test system: ACHN renal
[16] = test system: SK-MEL-28 melanoma
[17] = test system: SN12C renal
[18] = test system: OVCAR-8 ovarian
[19] = test system: SF-268 CNS
[20] = test system: A498 renal
[21] = test system: 786-0 renal
[22] = test system: TK-10 renal
[23] = test system: HS 578T breast
[24] = test system: DU-145 prostate
[25] = test system: LOX IMVI melanoma
[26] = test system: MALME-3M melanoma
[27] = test system: T-47D breast
[28] = test system: RPMI-8226 leukemia
[29] = test system: CAKI-1 renal

## CN1CCN(c2ccc3nc(-c4c(N)c5c(F)cccc5[nH]c4=O)[nH]c3c2)CC1
[1]
  GI50: 0.397 µM
  TGI: 1.6 µM
[2]
  GI50: 1.24 µM
  TGI: 2.55 µM
[3]
  GI50: 0.293 µM
  TGI: 1.16 µM
[4]
  GI50: 0.744 µM
  TGI: 2.02 µM
[5]
  GI50: 0.369 µM
  TGI: 1.08 µM
[6]
  GI50: 0.39 µM
  TGI: 1.43 µM
[7]
  GI50: 0.545 µM
  TGI: 1.98 µM
[8]
  GI50: 0.441 µM
  TGI: 1.54 µM
[9]
  GI50: 1.53 µM
  TGI: 2.96 µM
[10]
  GI50: 0.451 µM
  TGI: 1.7 µM
[11]
  GI50: 0.34 µM
  TGI: 1.37 µM
[12]
  GI50: 1.01 µM
  TGI: 2.17 µM
[13]
  GI50: 0.476 µM
  TGI: 1.64 µM
[14]
  GI50: 1.84 µM
  TGI: 4.05 µM
[15]
  GI50: 0.344 µM
  TGI: 1.5 µM
[16]
  GI50: 1.78 µM
  TGI: 3.17 µM
[17]
  GI50: 0.442 µM
  TGI: 1.59 µM
[18]
  GI50: 1.24 µM
  TGI: 2.53 µM
[19]
  GI50: 1.25 µM
  TGI: 2.83 µM
[20]
  GI50: 0.472 µM
  TGI: 1.77 µM
[21]
  GI50: 1.07 µM
  TGI: 2.3 µM
[22]
  GI50: 1.25 µM
  TGI: 3.22 µM
[23]
  GI50: 0.358 µM
  TGI: 1.5 µM
[24]
  GI50: 0.779 µM
  TGI: 2.1 µM
[25]
  GI50: 0.938 µM
  TGI: 2.13 µM
[26]
  GI50: 0.495 µM
  TGI: 1.67 µM
[27]
  GI50: 1.7 µM
  TGI: 3.1 µM
[28]
  GI50: 0.329 µM
  TGI: 1.24 µM
[29]
  GI50: 0.265 µM
  TGI: 1.32 µM
